# Data published in patent publication US11382889B2, “NRF2 activators for the prevention and/or treatment of axonal degeneration” (priority 2018, dated 2022).
# Structures can show the parent of a compound that is named as a salt.
# Columns and labels:
# [1] = Tolerability of dietary DMF in mice (weight, food intake, adverse events); details: DMF 100 mg/kg/day in chow
# Source text: We used male mice of a pure C57BL/6J background. All methods employed in this study were in accordance with the Guide for the Care and Use of Laboratory Animals (Guide, 8th edition, 2011, NIH) and European (2010/63/UE) and Spanish (RD 53/2013) legislation. Experimental protocol had been approved by IDIBELL, IACUC (Institutional Animal Care and Use Committee) and regional authority (3546 DMAH, Generalitat de Catalunya, Spain). IDIBELL animal facility has been accredited by The Association for Assessment and Accreditation of Laboratory Animal Care (AAALAC, Unit 1155). Animals were housed at 22° C. on specific-pathogen free conditions, in a 12-hour light/dark cycle, and ad libitum access to food and water. Cages contained 3 to 5 animals.
# DMF was mixed into AIN-76A chow from Dyets (Bethlehem, Pa., USA) to provide a dose of 100 mg/kg/day. Human equivalent dose would be 8 mg/kg/day ([…] in a typical 60 kg person). This is equivalent to the starting dose of BG-12/Tecfidera that is 120 mg twice a day for MS patients (EMA/204830/2013).
# For the characterization of biochemical signs on adult X-ALD mice, 8-months-old animals were randomly assigned to one of the following dietary groups for 4 months.
# Group I: wild-type (WT) mice received normal AIN-76A chow (n=12); group II: Abcd1^− mice received normal AIN-76A chow (n=12); group III: Abcd1^− mice received AIN-76A chow containing DMF (n=12). To evaluate the effect of DMF on the clinical signs of AMN-like pathology, 12-months-old animals were randomly assigned to one of the following dietary groups for 6 months. Group I: WT mice received normal AIN-76A chow (n=14); group II: Abcd1^−/Abcd2^−/− mice received normal AIN-76A chow (n=16); group III: Abcd1^−/Abcd2^−/− mice received AIN-76A chow containing DMF (n=14).
# NRF2 = NRF2 protein levels and NRF2-target gene expression in Abcd1− mice spinal cord after dietary DMF; type: in vivo; details: 12 months of age, DMF 100 mg/kg/day in chow for 4 months
# Source text: a) NRF2 protein levels in WT (n=6), Abcd1^− (n=6) and DMF-treated Abcd1^− mice (Abcd1^−+DMF, n=6) mice spinal cord at 12 months of age. Protein levels were normalized relative to γ-TUB and quantification is depicted as fold change to WT (Wild type) mice. b) NRF2-dependent antioxidative genes (Hmox1, Nqo1 and Gst α 3) expression in WT (n=8), Abcd1^− (n=8) and Abcd1^−+DMF (n=8) mice spinal cord at 12 months of age. Gene expression levels were normalized relative to Rplp0. Quantification is represented as fold change to WT mice. c) Mitochondrial DNA (mtDNA) levels in WT (n=8), Abcd1^− (n=8) and Abcd1^−+DMF (n=8) mice spinal cord at 12 months of age. mtDNA content was measured by quantitative RT-PCR and expressed as the ratio of mtDNA (CytB levels) to nuclear DNA (nDNA, Cebpa levels). Quantification is depicted as fold change to WT mice. d) Sirt1, Pgc-1α, Nrf1 and Tfam expression was measured by quantitative RT-PCR in WT (n=8), Abcd1^− (n=8) and Abcd1^−+DMF (n=8) mice spinal cord at 12 months of age. Gene expression levels were normalized relative to Rplp0. Quantification is depicted as fold change to WT mice. e) ATP levels in WT (n=8), Abcd1^− (n=8) and Abcd1^−+DMF (n=8) mice spinal cord at 12 months of age. Quantification is represented as fold change to WT mice. […]
# [2] = any treatment protocol (4 or 6 months)
smiles,measurement,setting,value
"COC(=O)/C=C/C(=O)OC [DMF, dimethyl fumarate]",adverse events or death during treatment,[1]; 4 or 6 months,none of the mice administered with DMF experienced any adverse events or death
same,effect on food intake,[1]; [2],no effect
same,effect on weight,[1]; [2],no effect
same,NRF2 protein levels,NRF2,induced
same,"NRF2 target genes expression (Hmox1, Nqo1, Gstα3)",NRF2,induced
